Data: PubChem BioAssay (NCI)
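Compound exposure: 48 hours, 5 concentrations, 96-well plates. TGI: concentration producing complete growth inhibition.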

Experiments:
Test in all cases: inhibition of tumour cell growth, NCI panel, 48 h
RPMI-8226 leukemia = tested on: RPMI-8226 leukemia
786-0 renal = tested on: 786-0 renal
CCRF-CEM leukemia = tested on: CCRF-CEM leukemia
SF-268 CNS = tested on: SF-268 CNS
MDA-MB-231 breast = tested on: MDA-MB-231 breast
MDA-MB-435 = tested on: MDA-MB-435
NCI/ADR-RES ovarian = tested on: NCI/ADR-RES ovarian
DU-145 prostate = tested on: DU-145 prostate
NCI-H23 lung = tested on: NCI-H23 lung
HOP-92 NSCLC = tested on: HOP-92 NSCLC
HT29 colon = tested on: HT29 colon
IGROV1 ovarian = tested on: IGROV1 ovarian
HCT-116 colon = tested on: HCT-116 colon
UO-31 renal = tested on: UO-31 renal
OVCAR-8 ovarian = tested on: OVCAR-8 ovarian
OVCAR-4 ovarian = tested on: OVCAR-4 ovarian
SF-295 CNS = tested on: SF-295 CNS
MOLT-4 leukemia = tested on: MOLT-4 leukemia
OVCAR-3 ovarian = tested on: OVCAR-3 ovarian
HL-60(TB) leukemia = tested on: HL-60(TB) leukemia

Structure (SMILES)	TGI (RPMI-8226 leukemia) [µM]	TGI (786-0 renal) [µM]	TGI (CCRF-CEM leukemia) [µM]	TGI (SF-268 CNS) [µM]	TGI (MDA-MB-231 breast) [µM]	TGI (MDA-MB-435) [µM]	TGI (NCI/ADR-RES ovarian) [µM]	TGI (DU-145 prostate) [µM]	TGI (NCI-H23 lung) [µM]	TGI (HOP-92 NSCLC) [µM]	TGI (HT29 colon) [µM]	TGI (IGROV1 ovarian) [µM]	TGI (HCT-116 colon) [µM]	TGI (UO-31 renal) [µM]	TGI (OVCAR-8 ovarian) [µM]	TGI (OVCAR-4 ovarian) [µM]	TGI (SF-295 CNS) [µM]	TGI (MOLT-4 leukemia) [µM]	TGI (OVCAR-3 ovarian) [µM]	TGI (HL-60(TB) leukemia) [µM]
CC1=NN=C(N)NC1=CC(Sc1ccc(Cl)cc1)c1c(O)ccc2ccccc12 (centres undefined)	> 100	> 65.6	31.5	> 71.1	56.5	> 86.6	71.9	> 84.6	51.6	> 78.5	48.4	37.3	> 63.2	> 67.6	43.6	> 64.7	> 57.7	> 84.9	–	–
CC1(C)O[C@@H](CBr)C[C@H](C[C@H]2C[C@@H](O)C[C@@H](CCOCc3ccccc3)O2)O1	97	39.8	> 100	39.2	> 100	55.6	41.1	61.8	36.7	77.5	–	42.6	45.4	43.5	47.7	41.7	32.4	> 100	39.8	–
COC(=O)c1c(-c2ccccc2)c2sc3ccccc3n2c1N	> 100	> 100	> 100	> 100	> 100	> 100	> 100	> 100	> 100	98	> 100	> 100	> 100	> 100	> 100	> 100	> 100	–	> 100	–
CCC(=O)C(C(C)/C=C/CCSc1ccccc1)C(O)CCCCCC(=O)OC (centres undefined)	> 100	> 100	> 100	> 100	> 100	> 100	> 100	> 100	> 100	> 100	> 100	> 100	> 100	> 100	> 100	> 100	> 100	81	> 100	–
N#Cc1nc(COCCOCc2ccc(F)cc2)oc1N	> 100	> 100	> 100	> 100	> 100	> 100	> 100	> 100	> 100	–	> 100	> 100	> 100	> 100	> 100	> 100	> 100	> 100	> 100	> 100
COc1ccc(N=[N+]([O-])c2ccc(OC)cc2)cc1	> 100	> 100	–	> 100	> 100	> 100	> 100	> 100	> 100	> 100	> 100	> 100	> 100	> 100	> 100	> 100	> 100	> 100	> 100	–
CC(=O)ON(C(C)=O)c1ccc(-c2nc3ccccc3s2)cc1C	> 100	> 100	> 100	> 100	> 100	> 100	> 100	> 100	> 100	> 100	> 100	> 100	> 100	> 100	> 100	> 100	> 100	> 100	> 100	–
CCOP(=O)(OCC)/C(C#N)=C/c1ccnc2ccccc12	> 100	51.2	–	56.5	58.2	31.3	> 100	> 100	59.7	43.7	37.5	> 100	> 100	–	52	> 100	57.9	> 100	70.6	–
COP(=O)(OC)/C(=C\c1cn(C(c2ccccc2)(c2ccccc2)c2ccccc2)cn1)NC(C)=O	–	> 100	> 100	> 100	> 100	> 100	> 100	> 100	> 100	> 100	> 100	> 100	> 100	> 100	> 100	> 100	> 100	> 100	> 100	> 100
C=CCn1c(-c2ccc(-c3cs/c(=N\N=O)n3CC=C)cc2)cs/c1=N\N=O	–	> 100	> 100	> 100	69.3	> 100	> 100	> 100	> 100	> 100	> 100	> 100	> 100	> 100	> 100	57.4	> 100	> 100	> 100	> 100
